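Protocol summary: plate cells (96-well), add compound at 5 concentrations, incubate 48 h, interpolate endpoints linearly. Here, GI50 denotes the concentration required for 50% inhibition of growth.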 Calls of active or inactive are those of the source. Cut-off read from the data, not from the text of the source: active = GI50 up to about 1.1 µM and inactive = higher.
Key:
Assay in all cases: inhibition of tumour cell growth, NCI panel, 48 h
[1] = system: SW-620
[2] = system: ACHN
[3] = system: TK-10
[4] = system: UACC-257
[5] = system: UACC-62
[6] = system: SK-OV-3
[7] = system: OVCAR-4
[8] = system: UO-31
[9] = system: SN12C
[10] = system: M14
[11] = system: OVCAR-3
[12] = system: SR
[13] = system: OVCAR-8
[14] = system: SK-MEL-5
[15] = system: Hs-578T
[16] = system: CCRF-CEM
[17] = system: MDA-N
[18] = system: HOP-62
[19] = system: PC-3

| Structure (SMILES) | GI50 [1] | GI50 [2] | GI50 [3] | GI50 [4] | GI50 [5] | GI50 [6] | GI50 [7] | GI50 [8] | GI50 [9] | GI50 [10] | GI50 [11] | GI50 [12] | GI50 [13] | GI50 [14] | GI50 [15] | GI50 [16] | GI50 [17] | GI50 [18] | GI50 [19] |
| --- | --- | --- | --- | --- | --- | --- | --- | --- | --- | --- | --- | --- | --- | --- | --- | --- | --- | --- | --- |
| CC1CC(NC2CCCCC2)=Nc2ccccc2N1Cc1ccccc1 (centres undefined) | 6.37 µM (inactive) | 10.4 µM (inactive) | 12.3 µM (inactive) | 3.45 µM (inactive) | 1.79 µM (inactive) | 11.2 µM (inactive) | 5.78 µM (inactive) | 4.66 µM (inactive) | 7.85 µM (inactive) | 2.04 µM (inactive) | 6.92 µM (inactive) | 2.64 µM (inactive) | 6.59 µM (inactive) | 2.43 µM (inactive) | 3.95 µM (inactive) | 4.13 µM (inactive) | 3.69 µM (inactive) | 7.03 µM (inactive) | 5.41 µM (inactive) |
| COc1ccc2c3c1OC1C4(CCC5C(C2)N(CC2CC2)CCC351)OCCO4 (centres undefined) | > 100 µM (inactive) | > 100 µM (inactive) | > 100 µM (inactive) | > 100 µM (inactive) | > 100 µM (inactive) | > 100 µM (inactive) | > 100 µM (inactive) | > 100 µM (inactive) | > 100 µM (inactive) | > 100 µM (inactive) | > 100 µM (inactive) | > 100 µM (inactive) | > 100 µM (inactive) | > 100 µM (inactive) | > 100 µM (inactive) | > 100 µM (inactive) | > 100 µM (inactive) | > 100 µM (inactive) | > 100 µM (inactive) |
| CC(=O)O[C@H]1C(=O)[C@@]2(C)[C@H]([C@H](OC(=O)c3ccco3)[C@]3(O)C[C@H](OC(=O)[C@H](O)[C@@H](NC(=O)c4ccccc4)c4ccccc4)C(C)=C1C3(C)C)[C@]1(OC(C)=O)CO[C@@H]1C[C@@H]2O | 0.146 µM (active) | 7.98 µM (inactive) | 8.41 µM (inactive) | 0.42 µM (active) | 0.277 µM (active) | 0.287 µM (active) | > 22.4 µM (inactive) | > 18.3 µM (inactive) | 0.308 µM (active) | 0.421 µM (active) | 0.0612 µM (active) | 0.0809 µM (active) | 0.273 µM (active) | 0.116 µM (active) | 0.0608 µM (active) | 0.05 µM (active) | 0.0127 µM (active) | 0.676 µM (active) | 0.12 µM (active) |
| CC(Oc1ccccc1Cl)C(=O)NN1C(=O)CSC1c1ccc(Cl)cc1 (centres undefined) | 23.4 µM (inactive) | 27.2 µM (inactive) | 25.8 µM (inactive) | 23.6 µM (inactive) | 17.8 µM (inactive) | 18.8 µM (inactive) | 13.7 µM (inactive) | 35.1 µM (inactive) | 14.8 µM (inactive) | 18.4 µM (inactive) | 23.3 µM (inactive) | < 0.01 µM (active) | 23.4 µM (inactive) | 17.6 µM (inactive) | 20.4 µM (inactive) | 0.17 µM (active) | 15.2 µM (inactive) | 17.4 µM (inactive) | 18.9 µM (inactive) |
| Cc1ccc(S(=O)(=O)N/N=C2/CCC(C(C)(C)C)CC2Br)cc1 (centres undefined) | 23.9 µM (inactive) | 34.1 µM (inactive) | 31 µM (inactive) | 23 µM (inactive) | > 10 µM (inactive) | 33.8 µM (inactive) | 19.5 µM (inactive) | 17.2 µM (inactive) | 17.3 µM (inactive) | 17.9 µM (inactive) | 16.2 µM (inactive) | 39 µM (inactive) | 26.4 µM (inactive) | 15.5 µM (inactive) | 17.2 µM (inactive) | 24.5 µM (inactive) | 28.2 µM (inactive) | 32.4 µM (inactive) | 25.6 µM (inactive) |
| CSCCC(N)P(C)(=O)O (centres undefined) | > 100 µM (inactive) | > 100 µM (inactive) | > 100 µM (inactive) | > 100 µM (inactive) | > 100 µM (inactive) | > 100 µM (inactive) | > 100 µM (inactive) | > 100 µM (inactive) | > 100 µM (inactive) | > 100 µM (inactive) | > 100 µM (inactive) | > 100 µM (inactive) | > 100 µM (inactive) | > 100 µM (inactive) | > 100 µM (inactive) | > 100 µM (inactive) | > 100 µM (inactive) | > 100 µM (inactive) | > 100 µM (inactive) |
